Key:
[1] = test system: 2nd instar larvae of Spodoptera frugiperda; experiment: Laboratory test, 2nd instar larvae of Spodoptera frugiperda on maize leaves; format: in vivo; conditions: within 72 h
[2] = test system: 2nd instar larvae of Spodoptera frugiperda; experiment: Laboratory test, 2nd instar larvae of Spodoptera frugiperda on treated soybean leaves; format: in vivo; conditions: within 96 h

In the case of `CNC(=O)c1cc(Cl)cc(C)c1NC(=O)c1cc(Br)nn1-c1ncccc1Cl` [Compound 2, 3-bromo-N-[4-chloro-2-methyl-6-[(methylamino)carbonyl]phenyl]-1-(3-chloro-2-pyridinyl)-1H-pyrazole-5-carboxamide], the “Concentration in leaf tissue needed to achieve 100% mortality” value [1] is reported as 0.037 μg per g of tissue and the “Concentration in leaf tissue resulting in 50% mortality” value [1] is reported as 0.033 μg per g of leaf tissue.

With `CNC(=O)c1cc(C#N)cc(C)c1NC(=O)c1cc(Br)nn1-c1ncccc1Cl` [Compound 1, 3-bromo-1-(3-chloro-2-pyridinyl)-N-[4-cyano-2-methyl-6-[(methylamino)carbonyl]phenyl]-1H-pyrazole-5-carboxamide] the “Concentration needed to achieve 50% mortality, relative to the concentration of Compound 2” value [2] was 4-5 times greater.

Reference: US8530382B2, “Anthranilic diamide compositions for propagule coating” (E I du Pont de Nemours and Company, priority 2009, dated 2013)
